{"source": "patent US8592408B2", "about": "“Fused aminodihydrothiazine derivatives” (Eisai R&D Management Co., Ltd., priority 2011, dated 2013)", "key": {"[1]": {"system": "Salmonella typhimurium tester strains TA98, TA100, TA1535 and TA1537 and Escherichia coli tester strain WP2 uv", "assay": "Ames test", "assay_type": "cell-based", "details": "absence and presence of rat liver S9, up to highest dose tested 5000 ug/plate", "procedure": "The title compound was subjected to an Ames test (Salmonella typhimurium tester strains TA98, TA100, TA1535 and TA1537 and Escherichia coli tester strain WP2 uv. Mutation Research 1975, 31, 347; Mutation Research 1976, 38, 3; Proc. Nat. Acad. Sci. USA 1976, 73, 950; Proc. Nat. Acad. Sci. USA 1975, 72, 5135) in the absence and presence of rat liver S9. The compound was negative up to the highest dose/concentration tested (5000 ug/plate)."}, "[2]": {"biological_target": "T1, P-glycoprotein (MDR1-MDCK cells) (Homo sapiens, UniProt P08183)", "T1 construct": "assay run at Cyprotex Discovery Ltd; host or cells: MDCK (canine kidney epithelial) cells stably transfected with MDR1", "T1 sequence (P08183 whole entry)": "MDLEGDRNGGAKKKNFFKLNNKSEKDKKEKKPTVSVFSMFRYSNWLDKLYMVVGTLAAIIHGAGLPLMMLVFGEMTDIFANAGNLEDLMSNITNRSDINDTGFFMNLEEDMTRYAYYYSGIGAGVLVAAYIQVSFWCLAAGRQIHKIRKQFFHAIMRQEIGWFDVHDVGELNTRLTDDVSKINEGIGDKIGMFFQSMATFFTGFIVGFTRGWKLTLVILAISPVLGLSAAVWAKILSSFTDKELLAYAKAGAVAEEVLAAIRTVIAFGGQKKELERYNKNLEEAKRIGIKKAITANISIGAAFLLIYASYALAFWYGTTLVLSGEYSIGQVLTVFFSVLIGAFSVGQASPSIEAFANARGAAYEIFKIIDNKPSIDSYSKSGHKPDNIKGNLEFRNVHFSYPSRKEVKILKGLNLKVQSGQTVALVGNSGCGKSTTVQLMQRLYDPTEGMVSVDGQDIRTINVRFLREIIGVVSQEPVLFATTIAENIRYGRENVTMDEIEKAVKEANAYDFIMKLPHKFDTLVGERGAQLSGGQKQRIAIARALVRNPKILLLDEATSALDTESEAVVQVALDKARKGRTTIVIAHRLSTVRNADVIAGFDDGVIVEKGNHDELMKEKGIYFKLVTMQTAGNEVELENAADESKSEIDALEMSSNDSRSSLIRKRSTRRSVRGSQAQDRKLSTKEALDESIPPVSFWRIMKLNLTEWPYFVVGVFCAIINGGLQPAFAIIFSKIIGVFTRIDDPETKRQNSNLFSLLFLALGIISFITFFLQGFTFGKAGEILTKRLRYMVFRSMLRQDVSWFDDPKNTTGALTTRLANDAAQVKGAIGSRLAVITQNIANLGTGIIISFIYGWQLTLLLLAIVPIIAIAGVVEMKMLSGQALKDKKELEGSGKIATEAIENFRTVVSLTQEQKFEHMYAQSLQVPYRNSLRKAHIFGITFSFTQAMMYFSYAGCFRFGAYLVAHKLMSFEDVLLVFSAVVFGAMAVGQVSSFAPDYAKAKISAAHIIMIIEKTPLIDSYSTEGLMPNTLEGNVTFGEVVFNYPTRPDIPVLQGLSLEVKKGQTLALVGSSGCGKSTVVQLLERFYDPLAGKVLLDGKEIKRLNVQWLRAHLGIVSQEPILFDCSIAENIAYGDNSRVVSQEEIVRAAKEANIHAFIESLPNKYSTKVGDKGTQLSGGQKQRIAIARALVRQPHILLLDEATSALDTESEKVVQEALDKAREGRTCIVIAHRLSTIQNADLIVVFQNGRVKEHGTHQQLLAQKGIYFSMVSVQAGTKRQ", "assay": "MDR1-MDCK permeability (bi-directional) Pgp efflux assay", "assay_type": "in vitro ADME", "details": "MDR1-MDCK, pH 7.4/pH 7.4, 10 μM, 60 min; ER=Papp(B-A)/Papp(A-B)", "procedure": "(§1) Test compound permeability was assessed in duplicate.\n(§2) Test and control compounds were quantified by LC-MS/MS cassette analysis using a 5-point calibration with appropriate dilution of the samples. Cyprotex generic analytical conditions were used. The starting concentration (C0) was determined from the dosing solution and the experimental recovery calculated from C0 and both apical and basolateral compartment concentrations.\n(§3) Lucifer yellow permeation is low if monolayers have not been damaged.\n(§4) Where dQ/dt is the rate of permeation of the drug across the cells, C0 is the donor compartment concentration at time zero and A is the area of the cell monolayer."}, "[3]": {"assay": "Rat in vivo CNS penetration (plasma, brain and CSF concentrations)", "details": "10 mg/kg p.o.; for Kp at 2 h / Kp at 4 h / Kp at 6 h / Kp at 8 h: male, Sprague Dawley, po, rat", "procedure": "Rat In Vivo CNS Penetration\nMale Sprague Dawley rats were acquired from Charles River UK Ltd. (Margate, UK) and housed according to UK Home Office guidelines. Drugs were made up to the appropriate concentrations in 0.5% methyl cellulose. Animals were dosed orally (2 mL/kg) by gavage at the doses outlined in Tables 2 to 4 below.\nAt the time points post-dosing, specified in Tables 2 to 4 below the animals were administered an i.p. injection of sodium pentobarbitone (approximately 330 mg/kg for terminal anaesthesia).\nUsing a guillotine, the animals were decapitated and trunk blood collected into 15 ml Falcon tubes containing 100 IU heparin. Blood was vortexed followed by centrifugation at 6000 rpm, 4° C. for 5 minutes. Plasma was collected for DMPK and ELISA assays and stored at −80° C. until use. Brains were dissected out and divided along the midline, weighed and stored at −80° C. until further use.\nMethod for Analysis of Plasma, Brain and CSF Samples\nTest compound was prepared as a 1 mg free base/mL solution in DMSO, vortexed and sonicated for 5 min. The 1 mg/mL DMSO solution was diluted to 10 and 30 μg/mL acetonitrile stocks, by adding 10 μL to 990 μL acetonitrile and 30 μL to 970 μL acetonitrile, respectively. The 10 and 30 μg/mL acetonitrile stocks were then serially diluted 1:9 (v/v) (100 μL stock into 900 μL acetonitrile) to give the following solutions: 0.003, 0.01, 0.03, 0.1, 0.3, 1, 3, 10 and 30 μg/mL acetonitrile.\nControl male Sprague Dawley rat plasma and the study plasma samples were stored at −80° C. until the day of analysis when they were thawed at room temperature. Control plasma was centrifuged (2,000 g for 10 min) and aliquoted (90 μL) into eppendorf tubes for preparation of standards and blank samples. Study samples were previously aliquoted (100 μL) into eppendorf tubes immediately following collection of the plasma.\nDouble blank and blank samples were prepared by adding 10 μL of acetonitrile to 90 μL of blank plasma.\nControl male Sprague Dawley rat brain and the study brain samples were weighed after collection and stored at −80° C. until the day of analysis when they were thawed at room temperature. Once thawed brains were diluted with water (4 mL per gram of tissue) and homogenised using a mechanical homogeniser. An aliquot (100 μL) of each study sample was taken into Micronics tubes ready for analysis and sufficient aliquots (90 μL) of control brain homogenate prepared for preparation of standards and blanks.\nDouble blank and blank samples were prepared by adding 10 μL of acetonitrile to 90 μL of blank brain homogenate.\nEach plasma and brain homogenate sample, standard and blank (100 μL) was extracted with an aliquot (300 μL) of acetonitrile (containing 0.1% formic acid and 100 ng/mL of an appropriate internal standard). Double blanks were extracted with an aliquot (300 μL) of acetonitrile containing 0.1% formic acid). All samples, standards and blanks were then vortex mixed and centrifuged (2000 g for 15 min). An aliquot (50 μL) of the resulting supernatant was then taken into a 2 mL 96-deep well plate and diluted with acetonitrile:water (50:50 v/v) (150 μL) ready for analysis by a specific LC-MS/MS method.\nControl male Sprague Dawley rat CSF and the study CSF samples were stored at −80° C. until the day of analysis when they were thawed at room temperature. An aliquot (50 μL) of each study sample was taken into Micronics tubes ready for analysis and sufficient aliquots (45 μL) of control CSF prepared for preparation of standards and blanks.\nDouble blank and blank samples were prepared by adding 5 μL of acetonitrile to 45 μL of blank CSF.\nEach CSF sample, standard and blank (50 μL) was extracted with an aliquot (150 μL) of acetonitrile (containing 0.1% formic acid and 100 ng/mL of an appropriate internal standard). Double blanks were extracted with an aliquot (150 μL) of acetonitrile containing 0.1% formic acid."}, "[4]": {"assay": "Plasma protein binding (PPB), rapid equilibrium dialysis", "assay_type": "in vitro ADME", "details": "male, Sprague Dawley, rat, RED 6 h 37° C.", "procedure": "(§5) Method For Determination of Plasma Protein Binding (PPB) and Brain Tissue Binding (BTB)\n(§6) On the morning of dialysis, control male Sprague Dawley rat plasma and brain, previously stored at −80° C. were thawed at room temperature. Plasma was checked for pH and if necessary adjusted to 7.4 with 1M HCl. Plasma was then centrifuged (2000 g for 10 min) and the brains diluted with 2 mL of Phosphate Buffered Saline (pH 7.4) per gram of tissue and homogenised using a mechanical homogeniser.\n(§7) The Rapid Equilibrium Dialysis (RED) plate (Thermo Scientific) was prepared in accordance with the manufacturers guidelines i.e. the base plate was soaked in 20% (v/v) ethanol for 10 min and then rinsed twice with deionised water before being allowed to dry. […] The plate was then covered with an adhesive and incubated in air at 37° C. for 6 h with 130 rpm agitation.\n(§8) Following the 6 h incubation, the seal was removed and an aliquot (50 μL) taken from the PBS chambers and dispensed into Micronics tubes. […]\n(§9) Samples were vortex mixed and an aliquot (300 μL) of acetonitrile containing 0.1% formic acid and 100 ng/mL of an appropriate internal standard added. Samples were then mixed and centrifuged (2000 g for 15 min) and an aliquot of the supernatant (100 μL) removed into a 96-deep well plate and diluted with an equal volume of water ready for analysis by LC-MS/MS."}, "[5]": {"assay": "Brain tissue binding (BTB), rapid equilibrium dialysis", "assay_type": "in vitro ADME", "details": "rat brain homogenate, RED 6 h 37° C.", "procedure": "as §5, §6, §7, §8, §9"}, "[6]": {"assay": "Effects on QTc interval in anaesthetised guinea pigs", "assay_type": "in vivo", "details": "anaesthetised guinea pig, i.v. infusion 2.0, 6.0, 20 mg/kg/10 min, up to the highest dose/concentration tested", "method": "Assessment of Effects on QTc Interval in Guinea Pigs\nMale Dunkin-Hartley guinea pigs were weighed and anaesthetised using 4% isoflurane in carbogen. […] Xylazine at 2 mg/kg i.m. was administered into the hind limb as a bradycardic agent to enable detection of QTc prolongation by the software.\nThe carotid artery and jugular vein were cannulated with lines containing heparinised saline and a 3-lead ECG connected and monitored using LabChart Pro software. Animals were allowed to stabilise for 30 minutes after the completion of the surgical procedure, before the initiation of an i.v. vehicle (5% DMSO/90% MilliQ/5% 0.1N HCl) infusion from time zero (infusion rate=0.2 ml/kg/min). At 10 mins, an arterial blood sample was collected for PK analysis (150u1; all collection syringes were heparinised). At 12 mins, drug infusion was started @ 2.0 mg/kg/10 min i.v. The dose was increased to 6.0 mg/kg/10 min, then 20 mg/kg/10 min i.v., with a 10 minutes infusion period and two minutes blood sampling at each dose. After the final dose, a blood sample was taken and a second vehicle infusion initiated. Eight minutes later a terminal blood sample was collected for plasma PK analysis and the animal killed by a Schedule 1 method.\nQTc (Bazett's) changes were analysed using LabChart Pro software."}, "[7]": {"assay": "Effects on QTc interval in anaesthetised beagle dogs", "assay_type": "in vivo", "details": "anaesthetised beagle dog, infusion 1, 3, 10 mg/kg/10 min, up to the highest dose/concentration tested", "procedure": "Assessment of Effects on QTc Interval in Beagle Dogs\nMale beagle dogs were weighed and injected with sodium thiopental for induction of anesthesia.\nThe carotid artery and saphenous vein were cannulated with lines containing heparinised saline and a LII ECG connected and monitored using polygraph system. Animals were allowed to stabilise for 30 minutes before the infusion of compound solution and the infusion via cannula was started from time zero with 1 mg/kg/10 min. The dose was increased to 3 mg/kg/10 min, then 10 mg/kg/10 min. An arterial blood sample was collected after every dosing for PK analysis."}, "[8]": {"system": "Aβ peptide production in rat primary neuronal culture", "assay": "Quantification of Aβ peptide in culture of neurons from rat fetus brain (Aβ ELISA)", "assay_type": "cell-based", "details": "Primary cortical neuron, Aβ species (ABx-40 1 day / ABx-42 3 days) not given"}, "P-glycoprotein (MDR1)": {"biological_target": "T2, P-glycoprotein (MDR1) (Homo sapiens, UniProt P08183)", "T2 construct": "assay run at Cyprotex Discovery Ltd; host or cells: MDCK (canine kidney epithelial) cells stably transfected with MDR1", "T2 sequence (P08183 whole entry)": "as above", "assay": "MDR1-MDCK permeability (bi-directional) Pgp efflux assay", "assay_type": "in vitro ADME", "details": "dog, MDCK-MDR1, pH 7.4; read-out: Pgp ER", "procedure": "as §1, §2, §3, §4"}, "BACE-1": {"biological_target": "BACE-1 (Homo sapiens, UniProt P56817)", "sequence (P56817 46-501, species assumed)": "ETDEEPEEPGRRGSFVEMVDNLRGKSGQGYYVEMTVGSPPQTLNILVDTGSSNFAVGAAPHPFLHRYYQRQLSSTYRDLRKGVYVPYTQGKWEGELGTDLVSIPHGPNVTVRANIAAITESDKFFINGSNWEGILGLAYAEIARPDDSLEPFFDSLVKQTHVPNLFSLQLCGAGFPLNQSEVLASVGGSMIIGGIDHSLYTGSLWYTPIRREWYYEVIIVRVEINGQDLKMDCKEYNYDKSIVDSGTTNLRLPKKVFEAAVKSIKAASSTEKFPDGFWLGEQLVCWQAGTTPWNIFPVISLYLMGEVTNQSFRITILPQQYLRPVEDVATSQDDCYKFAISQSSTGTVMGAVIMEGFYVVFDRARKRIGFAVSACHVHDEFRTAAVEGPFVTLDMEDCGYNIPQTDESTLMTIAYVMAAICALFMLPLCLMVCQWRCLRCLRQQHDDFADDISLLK", "details": "cited from earlier work"}, "[9]": {"details": "TASTPM mice, cited from earlier work; for brain concentration: oral dose of 250 mg/kg"}, "Aβ40": {"system": "Aβ40", "details": "TASTPM mice, cited from earlier work"}, "[10]": {"details": "CSF / plasma (unbound), read-out: CSF:Plu"}, "[11]": {"details": "brain (total) / plasma (total), read-out: Brtot:Pltot"}, "[12]": {"details": "brain (unbound) / plasma (unbound), read-out: Bru:Plu"}}, "note": "Read-outs that look alike come from different tables or passages of the source.", "data": [{"smiles": "NC1=N[C@@]2(c3cc(N)ccc3F)CO[C@H](C(F)(F)F)[C@H]2CS1", "note": "[1-(25), (4aS,5S,7aS)-7a-(5-amino-2-fluorophenyl)-5-(trifluoromethyl)-4a,5,7,7a-tetrahydro-4H-furo[3,4-d][1,3]thiazin-2-amine]", "values": [{"measurement": "Ames test result", "setting": "[1]", "result": "negative"}]}, {"smiles": "NC1=N[C@@]2(c3cc(NC(=O)c4cnc(CF)cn4)ccc3F)CO[C@H](C(F)(F)F)[C@H]2CS1", "note": "[Example 8, N-(3-((4aS,5S,7aS)-2-amino-5-(trifluoromethyl)-4a,5,7,7a-tetrahydro-4H-furo[3,4-d][1,3]thiazin-7a-yl)-4-fluorophenyl)-5-(fluoromethyl)pyrazine-2-carboxamide]", "values": [{"measurement": "Pgp ER", "setting": "[2]", "result": 1.7}, {"measurement": "Kp at 2 h", "setting": "[3]; [10]", "result": 0.5}, {"measurement": "Kp at 4 h", "setting": "[3]; [10]", "result": 0.6}, {"measurement": "Kp at 6 h", "setting": "[3]; [10]", "result": 0.5}, {"measurement": "Kp at 2 h", "setting": "[3]; [11]", "result": 3.3}, {"measurement": "Kp at 4 h", "setting": "[3]; [11]", "result": 3.9}, {"measurement": "Kp at 6 h", "setting": "[3]; [11]", "result": 3.7}, {"measurement": "Kp at 8 h", "setting": "[3]; brain (total) / plasma (total), 8 h, read-out: Brtot:Pltot", "result": 3.8}, {"measurement": "Kp at 2 h", "setting": "[3]; [12]", "result": 0.7}, {"measurement": "Kp at 4 h", "setting": "[3]; [12]", "result": 0.8}, {"measurement": "Kp at 6 h", "setting": "[3]; [12]", "result": 0.8}, {"measurement": "Kp at 8 h", "setting": "[3]; brain (unbound) / plasma (unbound), 8 h, read-out: Bru:Plu", "result": 0.8}, {"measurement": "[CSF]", "setting": "[3]; rat CSF, 8 h", "result": "^3n.q."}, {"measurement": "fraction unbound at 6 h, 1 μg/mL", "setting": "[4]; pH 7.4, fraction unbound, rat plasma, mean of n = 3, read-out: Rat Plasma fu", "result": 0.104}, {"measurement": "fraction unbound at 6 h, 1 μg/mL", "setting": "[4]; pH 7.4, rat plasma, mean of n = 3, read-out: Rat PPB (%) (converted)", "result": 0.104}, {"measurement": "fraction unbound at 6 h, 1 μg/mL", "setting": "[5]; male, Sprague Dawley, pH 7.4, fraction unbound, mean of n = 3, read-out: Rat Brain fu", "result": 0.022}, {"measurement": "Rat BTB (%)", "setting": "[5]; 1 μg/mL, mean of n = 3", "result": 97.8, "unit": "%"}, {"measurement": "QTc (Bazett's) change", "setting": "[6]", "result": "unchanged"}, {"measurement": "QTc change", "setting": "[7]", "result": "unchanged"}, {"measurement": "IC50", "setting": "[8]", "result": 6, "unit": "nM"}]}, {"smiles": "COCc1cnc(C(=O)Nc2ccc(F)c([C@]34CO[C@H](C(F)(F)F)[C@H]3CSC(N)=N4)c2)cn1", "note": "[Example 13, N-(3-((4aS,5S,7aS)-2-amino-5-(trifluoromethyl)-4a,5,7,7a-tetrahydro-4H-furo[3,4-d][1,3]thiazin-7a-yl)-4-fluorophenyl)-5-(methoxymethyl)pyrazine-2-carboxamide]", "values": [{"measurement": "efflux ratio at 60 min, 10 μM", "setting": "P-glycoprotein (MDR1)", "result": 1.7}, {"measurement": "IC50", "setting": "[8]", "result": 44, "unit": "nM"}]}, {"smiles": "CCNc1cc(C(=O)N[C@@H](Cc2ccccc2)[C@H](O)CNCc2cccc(C(F)(F)F)c2)c(F)c(N2CCCCS2(=O)=O)c1", "note": "[GSK188909]", "values": [{"measurement": "IC50", "setting": "BACE-1", "result": 5, "unit": "nM"}, {"measurement": "increase in CNS penetration by co-administration of a Pgp inhibitor", "setting": "[9]; 250 mg/kg oral, with vs without GF120918", "result": "~9", "unit": "fold"}, {"measurement": "brain concentration", "setting": "[9]; Pgp inhibitor GF120918 dosed 5 hours before", "result": 5.43, "unit": "µM"}, {"measurement": "brain concentration", "setting": "[9]; no Pgp inhibitor", "result": 0.62, "unit": "µM"}, {"measurement": "effect on brain Aβ40 levels", "setting": "Aβ40; 250 mg/kg oral dose, absence of a Pgp inhibitor", "result": "did not have any effect"}, {"measurement": "reduction in brain Aβ40 levels relative to vehicle treated mice", "setting": "Aβ40; 250 mg/kg oral, Pgp inhibitor co-administered 5 hours prior", "result": 68, "unit": "%"}]}]}
